From BindingDB's records for doi:10.1016/j.ejmech.2014.06.017 (University of Messina, 2014)

Assay: Inhibition of PGPH-like activity of 20S proteasome in human erythrocytes using Z-Leu-Leu-Glu-AMC as substrate by fluorescence assay

SMILES	Ki
CC(C)C[C@H](NC(=O)CCn1ccc2ncccc2c1=O)B(O)O	690 nM
CC(C)C[C@H](NC(=O)Cn1ccc2ccccc2c1=O)B(O)O	990 nM
CC(C)C[C@H](NC(=O)CCn1ccc2ccccc2c1=O)B(O)O	240 nM
COc1cc2ccn(CCC(=O)N[C@@H](CC(C)C)B(O)O)c(=O)c2cc1OC	1250 nM
CC(C)C[C@H](NC(=O)Cn1ccc2ccc(Br)cc2c1=O)B(O)O	310 nM
CC(C)C[C@H](NC(=O)CCn1ccc2ccc(Br)cc2c1=O)B(O)O	2040 nM
